# Molecular target: T1, KDM5A (Homo sapiens, UniProt P29375)
# T1 construct: Full length KDM5A enzyme was expressed and purified inhouse; made in house
# Experiment: KDM5 enzyme assay, KDM5A HTRF (Example 463)
# Type: biochemical
# Conditions: compounds of Examples 1-432; read-out: Example 463 Assay KDM5A HTRF IC50
# T1 sequence (P29375 whole entry): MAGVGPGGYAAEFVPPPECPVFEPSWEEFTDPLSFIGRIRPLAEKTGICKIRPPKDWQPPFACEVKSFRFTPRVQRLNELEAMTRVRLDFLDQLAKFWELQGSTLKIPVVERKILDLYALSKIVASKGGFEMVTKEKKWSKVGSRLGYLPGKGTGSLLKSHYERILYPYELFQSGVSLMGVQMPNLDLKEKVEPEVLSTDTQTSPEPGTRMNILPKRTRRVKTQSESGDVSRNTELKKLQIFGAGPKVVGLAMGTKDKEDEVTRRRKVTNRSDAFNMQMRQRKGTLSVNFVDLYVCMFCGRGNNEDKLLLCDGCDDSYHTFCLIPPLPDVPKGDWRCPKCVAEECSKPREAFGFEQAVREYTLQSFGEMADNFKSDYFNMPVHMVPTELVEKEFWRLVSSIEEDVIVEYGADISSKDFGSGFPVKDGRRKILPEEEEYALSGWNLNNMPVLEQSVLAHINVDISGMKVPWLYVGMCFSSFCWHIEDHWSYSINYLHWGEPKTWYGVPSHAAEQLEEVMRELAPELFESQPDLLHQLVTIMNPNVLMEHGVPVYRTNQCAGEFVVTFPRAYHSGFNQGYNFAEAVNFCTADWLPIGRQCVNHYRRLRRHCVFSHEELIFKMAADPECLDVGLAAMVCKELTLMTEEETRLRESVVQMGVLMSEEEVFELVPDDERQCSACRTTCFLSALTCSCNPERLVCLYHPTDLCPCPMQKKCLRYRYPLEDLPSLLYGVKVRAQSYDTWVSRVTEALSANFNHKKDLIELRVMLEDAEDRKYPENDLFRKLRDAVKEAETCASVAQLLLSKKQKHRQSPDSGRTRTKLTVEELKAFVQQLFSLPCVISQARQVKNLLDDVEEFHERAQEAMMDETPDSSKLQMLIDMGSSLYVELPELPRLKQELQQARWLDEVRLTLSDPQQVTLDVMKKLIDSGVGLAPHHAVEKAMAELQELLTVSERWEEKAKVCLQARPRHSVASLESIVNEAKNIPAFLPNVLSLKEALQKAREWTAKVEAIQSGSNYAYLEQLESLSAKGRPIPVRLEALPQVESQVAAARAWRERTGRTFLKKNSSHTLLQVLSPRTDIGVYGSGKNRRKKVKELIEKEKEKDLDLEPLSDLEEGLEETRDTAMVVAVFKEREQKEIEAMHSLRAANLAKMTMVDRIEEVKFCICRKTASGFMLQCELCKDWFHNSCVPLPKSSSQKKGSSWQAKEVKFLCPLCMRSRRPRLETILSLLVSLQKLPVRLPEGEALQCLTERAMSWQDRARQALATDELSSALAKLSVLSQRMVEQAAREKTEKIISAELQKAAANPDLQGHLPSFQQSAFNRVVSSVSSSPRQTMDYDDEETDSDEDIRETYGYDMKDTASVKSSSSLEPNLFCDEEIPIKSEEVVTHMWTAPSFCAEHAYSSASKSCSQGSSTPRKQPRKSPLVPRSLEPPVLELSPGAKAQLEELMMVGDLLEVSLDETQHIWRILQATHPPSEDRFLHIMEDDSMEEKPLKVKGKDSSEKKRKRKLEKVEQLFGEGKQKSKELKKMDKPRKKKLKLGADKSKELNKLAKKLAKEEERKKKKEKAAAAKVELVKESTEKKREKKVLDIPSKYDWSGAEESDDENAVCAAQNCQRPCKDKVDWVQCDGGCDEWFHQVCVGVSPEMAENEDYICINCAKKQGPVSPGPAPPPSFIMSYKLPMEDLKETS
row,SMILES,IC50 [nM]
1,C/C=C/c1[nH]c2c(C#N)cnn2c(=O)c1C(C)C [Compound 373],24
2,CC(=O)Nc1cccc(-c2[nH]c3c(C#N)cnn3c(=O)c2C(C)C)c1 [Compound 374],38
3,CC(C)c1c(-c2cccc(NS(C)(=O)=O)c2)[nH]c2c(C#N)cnn2c1=O [Compound 375],19
4,CC(C)c1c(-c2ccc(C(=O)N3CCOCC3)cc2)[nH]c2c(C#N)cnn2c1=O [Compound 376],19
5,CC(=O)N1CCN(c2ccc(-c3[nH]c4c(C#N)cnn4c(=O)c3C(C)C)cc2)CC1 [Compound 377],22
6,CC(C)c1c(-c2cnn(CC(F)F)c2)[nH]c2c(C#N)cnn2c1=O [Compound 378],14
7,CC(C)c1ccc(-c2[nH]c3c(C#N)cnn3c(=O)c2C(C)C)o1 [Compound 379],11
8,CC(C)c1c(-c2cnn(C3CCC(F)(F)C3)c2)[nH]c2c(C#N)cnn2c1=O (stereo not shown) [Compound 380],48
9,CC(C)c1c(-c2cnn([C@H]3CC[C@@H](O)C3)c2)[nH]c2c(C#N)cnn2c1=O [Compound 381],30
10,CC(C)c1c(-c2cnn([C@H]3CC[C@H](O)C3)c2)[nH]c2c(C#N)cnn2c1=O [Compound 382],48
11,CC(C)c1c(-c2cccc(-c3cn[nH]c3)c2)[nH]c2c(C#N)cnn2c1=O [Compound 383],31
12,CC(C)c1c(-c2ccc(Br)o2)[nH]c2c(C#N)cnn2c1=O [Compound 384],13
13,CC(C)c1c(-c2cccc(Nc3ccccc3)c2)[nH]c2c(C#N)cnn2c1=O [Compound 385],21
14,Cc1ncc(-c2[nH]c3c(C#N)cnn3c(=O)c2C(C)C)s1 [Compound 386],12
15,CC(C)c1c(-c2cccc(C#Cc3ccccc3)c2)[nH]c2c(C#N)cnn2c1=O [Compound 387],130
16,CC(C)c1c(-c2cccc(CCc3ccccc3)c2)[nH]c2c(C#N)cnn2c1=O [Compound 388],25
17,CC(C)c1c(-c2cnn(C3CCC(F)C3)c2)[nH]c2c(C#N)cnn2c1=O (stereo not shown) [Compound 389],33
18,COCC(C)(C)n1cc(-c2[nH]c3c(C#N)cnn3c(=O)c2C(C)C)cn1 [Compound 390],55
19,C=CC(=O)N1CC(n2cc(-c3[nH]c4c(C#N)cnn4c(=O)c3C(C)C)cn2)C1 [Compound 391],11
20,CCC(=O)N1CC(n2cc(-c3[nH]c4c(C#N)cnn4c(=O)c3C(C)C)cn2)C1 [Compound 392],20
21,CC(C)c1c(-c2ccc(=O)[nH]c2)[nH]c2c(C#N)cnn2c1=O [Compound 393],12
22,CC(C)c1c(-c2cccc(/C=C/c3ccccc3)c2)[nH]c2c(C#N)cnn2c1=O [Compound 394],20
23,CC(C)c1c(-c2ccc(N3CCNCC3)cc2)[nH]c2c(C#N)cnn2c1=O [Compound 395],10
24,CC(C)c1c(-c2cnn(C(C)(C)CF)c2)[nH]c2c(C#N)cnn2c1=O [Compound 396],34

row,SMILES,IC50 [nM]
1,CC(C)c1c(-c2c[nH]nc2C(F)(F)F)[nH]c2c(C#N)cnn2c1=O [Compound 397],32
2,Cc1cc(C)cc(-c2[nH]c3c(C#N)cnn3c(=O)c2C(C)C)c1 [Compound 398],41
3,CC(C)c1c(-c2ccc(S(=O)(=O)N3CCOCC3)cc2)[nH]c2c(C#N)cnn2c1=O [Compound 399],54
4,CC(C)c1c(-c2cccc(C(=O)N3CCN(C)CC3)c2)[nH]c2c(C#N)cnn2c1=O [Compound 400],35
5,CC(C)c1c(-c2cccc(C(C)(C)O)c2)[nH]c2c(C#N)cnn2c1=O [Compound 401],39
6,Cc1nn(C(C)C)cc1-c1[nH]c2c(C#N)cnn2c(=O)c1C(C)C [Compound 402],58
7,Cc1c(-c2[nH]c3c(C#N)cnn3c(=O)c2C(C)C)cnn1C(C)C [Compound 403],57
8,C=CC(C)c1c(-c2ccccc2)[nH]c2c(C#N)cnn2c1=O (stereo not shown) [Compound 404],18
9,CC(C)c1c(-c2cc(C3CC3)n[nH]2)[nH]c2c(C#N)cnn2c1=O [Compound 405],12
10,COC(=O)c1cc(-c2[nH]c3c(C#N)cnn3c(=O)c2C(C)C)c[nH]1 [Compound 406],15
11,CC(C)c1c(-c2cc(C3CC3)nn2C(C)C)[nH]c2c(C#N)cnn2c1=O [Compound 407],48
12,CC(C)c1c(-c2cc(C3CC3)n(C(C)C)n2)[nH]c2c(C#N)cnn2c1=O [Compound 408],150
13,COC(=O)c1cc(-c2[nH]c3c(C#N)cnn3c(=O)c2C(C)C)cn1C(C)C [Compound 409],44
14,CC(C)c1c(-c2cc(C(F)(F)F)nn2C)[nH]c2c(C#N)cnn2c1=O [Compound 410],39
15,CC(C)c1c(-c2ccn(C(C)C)n2)[nH]c2c(C#N)cnn2c1=O [Compound 411],35
16,CC(C)c1c(-c2cc(C3CC3)n(C3CCCC3)n2)[nH]c2c(C#N)cnn2c1=O [Compound 412],46
17,CC(C)c1c(-c2cc(C3CC3)nn2C2CCCC2)[nH]c2c(C#N)cnn2c1=O [Compound 413],110
18,CC(C)c1c(-c2ccn(C3CCCC3)n2)[nH]c2c(C#N)cnn2c1=O [Compound 414],14
19,CC(C)c1c(-c2ccnn2C(C)C)[nH]c2c(C#N)cnn2c1=O [Compound 415],77
20,CNC(=O)c1cc(-c2[nH]c3c(C#N)cnn3c(=O)c2C(C)C)cn1C(C)C [Compound 416],48
21,CC(C)c1c(-c2cc(C(=O)N(C)C)n(C(C)C)c2)[nH]c2c(C#N)cnn2c1=O [Compound 417],31
22,CC(C)c1c(-c2ccn(CCC3CC3)n2)[nH]c2c(C#N)cnn2c1=O [Compound 418],13
23,CC(C)c1c(-c2ccnn2CCC2CC2)[nH]c2c(C#N)cnn2c1=O [Compound 419],88
24,CCn1ccc(-c2[nH]c3c(C#N)cnn3c(=O)c2C(C)C)n1 [Compound 420],23

row,SMILES,IC50 [nM]
1,CCc1c(-c2cccc(N3CCCC3=O)c2)[nH]c2c(C#N)cnn2c1=O [Compound 421],19
2,CCc1c(-c2cccc(N3CCC(C)(C)C3=O)c2)[nH]c2c(C#N)cnn2c1=O [Compound 422],29
3,CCc1c(-c2cccc(N3CCC(c4ccccc4)C3=O)c2)[nH]c2c(C#N)cnn2c1=O (stereo not shown) [Compound 423],20
4,CC(C)c1c(-c2cccc(N3CCC(c4ccccc4)C3=O)c2)[nH]c2c(C#N)cnn2c1=O (stereo not shown) [Compound 424],8
5,C=CCc1c(-c2cnn(C(C)C)c2)[nH]c2c(C#N)cnn2c1=O [Compound 425],16
6,CCc1c(-c2cccc(/C=C/c3ccccc3)c2)[nH]c2c(C#N)cnn2c1=O [Compound 426],23
7,CC(C)c1c(-c2cccc(-c3cccc(C#N)c3)c2)[nH]c2c(C#N)cnn2c1=O [Compound 427],39
8,CC(C)c1c(-c2cccc(-c3cccc(NS(C)(=O)=O)c3)c2)[nH]c2c(C#N)cnn2c1=O [Compound 428],14
9,CC(C)c1c(-c2cccc(-c3ccc(NS(C)(=O)=O)cc3)c2)[nH]c2c(C#N)cnn2c1=O [Compound 429],27
10,CNS(=O)(=O)c1ccc(-c2cccc(-c3[nH]c4c(C#N)cnn4c(=O)c3C(C)C)c2)cc1 [Compound 430],32
11,CC(C)n1cc(-c2[nH]c3c(C#N)cnn3c(=O)c2C2CCC2)cn1 [Compound 431],21
12,CC(C)n1cc(-c2[nH]c3c(C#N)cnn3c(=O)c2C2(C)CCC2)cn1 [Compound 432],56
13,"CC(C)c1c(Cl)[nH]c2c(C#N)cnn2c1=O [Example 1, 5-chloro-6-isopropyl-7-oxo-4,7-dihydropyrazolo[1,5-a]pyrimidine-3-carbonitrile]",4.3
14,"CCc1c(Cl)[nH]c2c(C#N)cnn2c1=O [Example 2, 5-chloro-6-ethyl-7-oxo-4,7-dihydropyrazolo[1,5-a]pyrimidine-3-carbonitrile]",3
15,"CC(C)c1c(-c2ccoc2)[nH]c2c(C#N)cnn2c1=O [Example 3, 5-(furan-3-yl)-6-isopropyl-7-oxo-4,7-dihydropyrazolo[1,5-a]pyrimidine-3-carbonitrile]",3.8
16,"CC(C)c1c(-c2ccoc2)n(C)c2c(C#N)cnn2c1=O [Example 4, 5-(furan-3-yl)-6-isopropyl-4-methyl-7-oxo-4,7-dihydropyrazolo[1,5-a]pyrimidine-3-carbonitrile]",65
17,"CC(C)c1c(-c2cn[nH]c2)[nH]c2c(C#N)cnn2c1=O [Example 5, 6-Isopropyl-7-oxo-5-(1H-pyrazol-4-yl)-4,7-dihydropyrazolo[1,5-a]pyrimidine-3-carbonitrile]",5.5
18,"CC(C)c1c(-c2cnn(CC3CC3)c2)[nH]c2c(C#N)cnn2c1=O [Example 6, 5-(1-(Cyclopropylmethyl)-1H-pyrazol-4-yl)-6-isopropyl-7-oxo-4,7-dihydropyrazolo[1,5-a]pyrimidine-3-carbonitrile]",13
19,"CC(C)c1c(-c2cnn(C3(C)CC3)c2)[nH]c2c(C#N)cnn2c1=O [Example 7, 6-Isopropyl-5-(1-(1-methylcyclopropyl)-1H-pyrazol-4-yl)-7-oxo-4,7-dihydropyrazolo[1,5-a]pyrimidine-3-carbonitrile]",30
20,"CC(C)c1c(-c2cn(C(C)C)nc2F)[nH]c2c(C#N)cnn2c1=O [Example 8, 5-(3-Fluoro-1-isopropyl-1H-pyrazol-4-yl)-6-isopropyl-7-oxo-4,7-dihydropyrazolo[1,5-a]pyrimidine-3-carbonitrile]",22
21,"CC(C)c1c(-c2cnn(C(C)(C)c3ccccc3)c2)[nH]c2c(C#N)cnn2c1=O [Example 9, 6-Isopropyl-7-oxo-5-(1-(2-phenylpropan-2-yl)-1H-pyrazol-4-yl)-4,7-dihydropyrazolo[1,5-a]pyrimidine-3-carbonitrile]",40
22,"CC(C)c1c(-c2cnn(-c3cccnc3)c2)[nH]c2c(C#N)cnn2c1=O [Example 10, 6-Isopropyl-7-oxo-5-(1-(pyridin-3-yl)-1H-pyrazol-4-yl)-4,7-dihydropyrazolo[1,5-a]pyrimidine-3-carbonitrile]",24
